From patent US8263606B2 (Xenon Pharmaceuticals Inc., priority 2008, dated 2012)

Tests used:
sodium channel = test: Guanidine influx assay (14C-guanidine radiotracer flux, in vitro); type: cell-based, human or rat; settings: guanidine influx assay using a known cell line that expresses a sodium channel
Procedure, shortened: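 Test agents at half-step dilutions around 1 μM are added to plated cells in low-sodium HEPES buffer, then an aconitine/14C-guanidine mixture; after ambient-temperature incubation, cells are washed and counted. IC50 comes from a sigmoidal fit.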

CYP3A4 = CYP3A4 (Homo sapiens, UniProt P08684); test: Cytochrome P450 (CYP450) Inhibition Assay, CYP3A4 (Vivid fluorescence, BOMCC substrate); settings: human, P450 Baculosomes (recombinant CYP3A4), probe BOMCC (Vivid substrate)
CYP3A4, sequence (P08684 whole entry): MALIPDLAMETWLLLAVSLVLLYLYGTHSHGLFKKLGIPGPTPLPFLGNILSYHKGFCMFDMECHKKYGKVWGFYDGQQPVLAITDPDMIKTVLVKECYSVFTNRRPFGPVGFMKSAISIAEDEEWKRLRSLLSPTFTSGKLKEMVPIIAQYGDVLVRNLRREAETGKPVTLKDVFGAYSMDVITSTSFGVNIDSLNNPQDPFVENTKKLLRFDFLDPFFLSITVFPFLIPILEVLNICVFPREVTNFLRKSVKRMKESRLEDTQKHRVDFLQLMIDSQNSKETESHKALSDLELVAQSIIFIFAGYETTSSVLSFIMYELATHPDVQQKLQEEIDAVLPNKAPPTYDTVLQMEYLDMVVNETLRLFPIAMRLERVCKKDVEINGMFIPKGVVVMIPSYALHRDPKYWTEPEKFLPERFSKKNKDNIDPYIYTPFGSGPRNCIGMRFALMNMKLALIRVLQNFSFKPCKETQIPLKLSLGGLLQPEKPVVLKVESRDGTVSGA

Compound	melting point [°C]	IC50 (sodium channel) [nM]	inhibition at 10 µM (CYP3A4) [%]	IC50 (sodium channel; activity level class) [nM]
Cc1ccc(F)c(NC(=O)c2ccccc2CN2C(=O)C3(COc4cc5c(cc43)CCO5)c3ccccc32)c1 (stereo not drawn) [Example 12.20, N-(2-fluoro-5-methylphenyl)-2-[(2′-oxo-5,6-dihydrospiro[benzo[1,2-b:5,4-b′]difuran-3,3′-indol]-1′(2′H)-yl)methyl]benzamide]	214 to 216	1000 to 10000	> 50	
O=C1N(Cc2ncccn2)c2ccccc2C12COc1cc3c(cc12)OCCO3 (stereo not drawn) [Example 5.32, 1′-(pyrimidin-2-ylmethyl)-2,3-dihydrospiro[furo[2,3-g][1,4]-benzodioxine-8,3′-indol]-2′(1′H)-one]	278 to 279		< 50	1 to 100
CCc1ccccc1NC(=O)c1ccccc1CN1C(=O)C2(COc3cc4c(cc32)CCO4)c2ccccc21 (stereo not drawn) [Example 12.9, N-(2-ethylphenyl)-2-[(2′-oxo-5,6-dihydrospiro[benzo[1,2-b:5,4-b′]difuran-3,3′-indol]-1′(2′H)-yl)methyl]benzamide]	184 to 186	1000 to 10000	> 50	
CC(C)c1nc(CN2C(=O)C3(COc4cc5c(cc43)OCO5)c3c(Cl)cccc32)no1 (stereo not drawn) [Example 11.25, 4′-chloro-1′-{[5-(1-methylethyl)-1,2,4-oxadiazol-3-yl]methyl}spiro[furo[2,3-f][1,3]benzodioxole-7,3′-indol]-2′(1′H)-one]	165 to 167	1 to 100	> 50	
COc1ccc(-c2cccc3c2C2(COc4cc5c(cc42)OCCO5)C(=O)N3Cc2ccccn2)cc1 (stereo not drawn) [Example 16.60, 4′-(4-methoxyphenyl)-1′-(pyridin-2-ylmethyl)-3,7-dihydro-2H-spiro[benzofuro[5,6-b][1,4]dioxine-8,3′-indolin]-2′-one]	205 to 206	1 to 100	> 50	
Cc1onc(-c2c(Cl)cccc2Cl)c1CN1C(=O)C2(COc3cc4c(cc32)OCO4)c2ccccc21 (stereo not drawn) [Example 6.4, 1′-{[3-(2,6-dichlorophenyl)-5-methylisoxazol-4-yl]methyl}spiro[furo[2,3-f][1,3]benzodioxole-7,3′-indol]-2′(1′H)-one]	190 to 192		> 50	1000 to 10000
COc1cc2c(cc1F)C1(CO2)C(=O)N(Cc2ccccn2)c2ccccc21 (stereo not drawn) [Example 4.65, 5-fluoro-6-methoxy-1′-(pyridin-2-ylmethyl)spiro[1-benzofuran-3,3′-indol]-2′(1′H)-one]	142 to 144		< 50	100 to 1000
CC(C)c1nc(CN2C(=O)C3(COc4cc5c(cc43)OCO5)c3cccc(C#N)c32)cs1 (stereo not drawn) [Example 4.88, 1′-[(2-isopropyl-1,3-thiazol-4-yl)methyl]-2′-oxo-1′,2′-dihydrospiro[furo[2,3-f][1,3]benzodioxole-7,3′-indole]-7′-carbonitrile]	162 to 163		> 50	1 to 100
COC(=O)c1coc(CN2C(=O)C3(COc4cc5onc(C)c5cc43)c3ccccc32)n1 (stereo not drawn) [Example 9.58, methyl 2-[(3-methyl-2′-oxospiro[furo[3,2-f][1,2]benzisoxazole-5,3′-indol]-1′(2′H)-yl)methyl]-1,3-oxazole-4-carboxylate]	148 to 152	100 to 1000	< 50	
O=C1N(C[C@@H]2COCCO2)c2ccccc2[C@@]12COc1cc3c(cc12)OCCO3 [Example 8.5, (8R)-1′-[(2R)-1,4-dioxan-2-ylmethyl]-2,3-dihydrospiro[furo[2,3-g][1,4]benzodioxine-8,3′-indol]-2′(1′H)-one]	198 to 199		< 50	1000 to 10000
O=C(NC1CCC1)c1ccc(CN2C(=O)C3(COc4cc5c(cc43)CCO5)c3ccccc32)cc1 (stereo not drawn) [Example 12.42, N-cyclobutyl-4-[(2-oxo-5,6-dihydrospiro[benzo[1,2-b:5,4-b′]difuran-3,3-indol]-1(2H)-yl)methyl]benzamide]	> 250	100 to 1000	> 50	
O=C(Nc1ccccc1F)c1ccc(CN2C(=O)C3(COc4cc5c(cc43)OCCO5)c3ccccc32)cc1 (stereo not drawn) [Example 12.65, N-(2-fluorophenyl)-4-[(2′-oxo-2,3-dihydrospiro[furo[2,3-g][1,4]benzodioxine-8,3′-indol]-1′(2′H)-yl)methyl]benzamide]	245 to 251	100 to 1000	< 50	
O=C1OCCN1CCN1C(=O)C2(COc3cc4c(cc32)CCO4)c2ccccc21 (stereo not drawn) [Example 9.3, 1′-[2-(2-oxo-1,3-oxazolidin-3-yl)ethyl]-5,6-dihydrospiro[benzo[1,2-b:5,4-b′]difuran-3,3′-indol]-2′(1′H)-one]	185 to 186		> 50	1000 to 10000
O=C(O)c1cccc(CN2C(=O)C3(COc4cc5c(cc43)CCO5)c3ccccc32)c1 (stereo not drawn) [Example 11.12, 3-[(2′-oxo-5,6-dihydrospiro[benzo[1,2-b:5,4-b′]difuran-3,3′-indol]-1′(2′H)-yl)methyl]benzoic acid]	> 250	1000 to 10000	< 50	
O=C1N(Cc2ccccn2)c2ccccc2C12COc1ccc3nonc3c12 (stereo not drawn) [Example 4.124, 1′-(pyridin-2-ylmethyl)spiro[furo[3,2-e][2,1,3]benzoxadiazole-8,3′-indol]-2′(1′H)-one]	180 to 182		< 50	1 to 100
O=C1N(Cc2cc3cccc(F)c3o2)c2ccccc2C12COc1cc3c(cc12)CCO3 (stereo not drawn) [Example 9.8, 1′-[(7-fluoro-1-benzofuran-2-yl)methyl]-5,6-dihydrospiro[benzo[1,2-b:5,4-b′]difuran-3,3′-indol]-2′(1′H)-one]	192 to 193		> 50	1 to 100
Cc1noc2cc3c(cc12)C1(CO3)C(=O)N(Cc2ncccc2C(F)(F)F)c2ccccc21 (stereo not drawn) [Example 9.42, 3-methyl-1′-{[3-(trifluoromethyl)pyridin-2-yl]methyl}spiro[furo[3,2-f][1,2]benzisoxazole-5,3′-indol]-2′(1′H)-one]	221 to 222		> 50	100 to 1000
COc1cc(OC)c2c(c1)N(Cc1ccccn1)C(=O)C21COc2cc3c(cc21)OCCO3 (stereo not drawn) [Example 9.74, 4′,6′-dimethoxy-1′-(pyridin-2-ylmethyl)-2,3-dihydrospiro[furo[2,3-g][1,4]benzodioxine-8,3′-indol]-2′(1′H)-one]	187 to 188	100 to 1000	> 50	
O=C1N(C[C@H]2CCCO2)c2cccc(Cl)c2C12COc1cc3c(cc12)CCO3 (stereo partly drawn) [Example 4.34, 4′-chloro-1′-[(2R)-tetrahydrofuran-2-ylmethyl]-5,6-dihydrospiro[benzo[1,2-b:5,4-b′]difuran-3,3′-indol]-2′(1′H)-one]	78 to 82		< 50	1 to 100
COc1cc2c(cc1F)OCC21C(=O)N(Cc2ccc(C(F)(F)F)o2)c2ccccc21 (stereo not drawn) [Example 4.83, 6-fluoro-5-methoxy-1′-{[5-(trifluoromethyl)furan-2-yl]methyl}spiro[1-benzofuran-3,3′-indol]-2′(1′H)-one]	132 to 134		> 50	1000 to 10000
CC(C)c1nc(CN2C(=O)C3(COc4cc5c(cc43)OCO5)c3c(Cl)cccc32)cs1 (stereo not drawn) [Example 4.91, 4′-chloro-1′-[(2-isopropyl-1,3-thiazol-4-yl)methyl]spiro[furo[2,3-f][1,3]benzodioxole-7,3′-indol]-2′(1′H)-one]	147 to 148		> 50	1 to 100
N#Cc1csc(CN2C(=O)C3(COc4cc5c(cc43)OCO5)c3ccccc32)c1 (stereo not drawn) [Example 11.74, 5-[(2′-oxospiro[furo[2,3-][1,3′]benzodioxole-7,3′-indol]-1′(2′H)-yl)methyl]thiophene-3-carbonitrile]	207 to 209	1 to 100	> 50	
COCCOCCN1C(=O)C2(COc3cc4c(cc32)CCO4)c2ccccc21 (stereo not drawn) [Example 9.1, 1′-[2-(2-methoxyethoxy)ethyl]-5,6-dihydrospiro[benzo[1,2-b:5,4-b′]difuran-3,3′-indol]-2′(1′H)-one]	105 to 107		> 50	100 to 1000
O=C1N(Cc2ccc(F)cn2)c2ccccc2[C@]12COc1cc3c(cc12)OCCO3 [Example 4.107, (8S)-1′-[(5-fluoropyridin-2-yl)methyl]-2,3-dihydrospiro[furo[2,3-g][1,4]benzodioxine-8,3′-indol]-2′(1′H)-one]	210 to 212		< 50	1 to 100
O=C1N(Cc2ccccn2)c2ccccc2C12COc1cc3nccnc3cc12 (stereo not drawn) [Example 4.130, 1′-(pyridin-2-ylmethyl)spiro[furo[2,3-g]quinoxaline-8,3′-indol]-2′(1′H)-one]	232 to 233		< 50	1000 to 10000
O=C1N(CC2CCOCC2)c2ccccc2C12COc1cc3c(cc12)OCCO3 (stereo not drawn) [Example 4.37, 1′-(tetrahydro-2H-pyran-4-ylmethyl)-2,3-dihydrospiro[furo[2,3-g][1,4]benzodioxine-8,3′-indol]-2′(1′H)-one]	129 to 131		< 50	1 to 100
O=C1N(Cc2ncccc2Br)c2ccccc2C12COc1cc3c(cc12)OCCO3 (stereo not drawn) [Example 11.78]	217 to 218	1 to 100	< 50	
